Measurements taken from patent publication US9901608B2, “Composition and method for enhancing alcohol metabolism” (GANGNEUNG-WONJU NATIONAL UNIVERSITY INDUSTRY ACADEMY …, priority 2014, dated 2018).

What was measured:
[1] = system: ALDH (acetaldehyde dehydrogenase) gene; test: qPCR of ALDH mRNA in HepG2 cells; assay type: cell-based, human; settings: HepG2, 10 μM, 1 and 2 h
Experimental: To evaluate the role of the GFM in ethanol metabolism, the genes of primary enzymes (ADH, ALDH, CYP2E1, and catalase) involved in eliminating ethanol from the body were quantified by real-time qPCR. Particularly, total RNA extracts from HepG2 cells (1×10^6 cells/well) treated with ethanol (0.2 mM) or GFM (10 μg/ml) were prepared using the Trizol method (Invitrogen) after 1, 2, 4 and 24 h after the treatment. And then, cDNA was synthesized from RNA by reverse transcription of 1 μg of total RNA using the Improm-II reverse transcription system (Promega) and oligo dT primers in a total volume of 20 μL. PCR amplification was performed using the primers described in Table 1 (Bioneer, Deajeon, Republic of Korea). Quantitative real-time PCR reactions were run on a Rotor-Gene 6000 (Corbett Research, Sydney, Australia) using SYBR Green PCR Master Mix (Qiagen, Valencia, Calif., USA) in 20 μL reaction mixtures. Each real-time-PCR master mix contained 10 μL 2× enzyme mastermix, 7.0 μL RNase free water, 1 μL of each primer (10 μM each) and 1 μL diluted template. […] Relative sample expression levels were calculated using Rotor-Gene 6000 Series Software 1.7 and were expressed relative to glyceraldehyde 3-phosphate dehydrogenase and corrected for between-run variability. Data for the experimental samples were expressed as a percentage of the internal control gene. […]

[2] = male, BALB/c, mouse, in vivo, 1 h
Experimental: Male BALB/c mice (7-week old) were purchased from Samtaco (Osan, Kyunggi-do, Republic of Korea), and were adapted to laboratory conditions (temperature: 20±2° C., relative humidity: 50%, light/dark cycle: 12 h) for 1 week. […] Perfused liver tissues from the treated mice were prepared using the Trizol method (Invitrogen, USA).
The enzymatic analysis was conducted with ALDH according to the method of Lundquist (Lundquist F. et al., Biochem. J., 68:172-177, 1958; Lundquist F. et al., In: Bergmeier H U (ed) Methods of enzymatic analysis. 2nd ed. Weinheim/New York and London, 230-257, 1974). This enzymatic test for alcohol utilizes the coenzyme NAD and ADH. The amount of NADH formed is stoichiometric to the amount of acetaldehyde. NADH was determined by light absorbance at 365 nm.

HepG2 cells = test: Cytotoxicity assay by LDH release; assay type: cell-based, human; settings: HepG2, ethanol 200 mM
Experimental: HepG2 human hepatoma cells (Korean Cell Line Bank, Seoul, Republic of Korea) were grown in RPMI1640 complete medium (Hyclone, Logan, Utah, USA) supplemented with 10% fetal bovine serum, 100 U/mL penicillin, and 100 μg/mL streptomycin (Invitrogen, Carlsbad, Calif., USA). The cultures were maintained under 5% CO2 at 37° C. in tissue culture flasks. For all experiments, cells were grown to >90% confluency and subjected to no more than 20 cell passages. The medium was changed every 2-3 days. Subconfluent cells were harvested and seeded at a density of 5×10^5 cells or 1.5×10^6 cells in poly-L-lysine-coated 35 mm or 60 mm culture plates. […]
Cytotoxicity of the GFM was investigated by measuring lactate dehydrogenase (LDH) release from HepG2 cells. That is, the cytotoxicity induced by the GFM in HepG2 cells was quantified by measuring LDH release at varying ranges of concentration (1-1,000 μg/mL). Cytotoxicity in experimental samples was determined as % LDH release, and the data from triplicate cultures were expressed as the mean±standard deviation. Concentration-dependent cytotoxicity determined as % LDH release was compared with non-treated control cells (Ctrl) and H2O2 (1 mM)-treated control was used as a positive control. […] Formazan was quantified spectrophotometrically by measuring its absorbance at 490 nm (Spectra Max 340, Molecular Devices, Sunnyvale, Calif., USA).

[3] = Side effects: body weights, organ masses, symptoms after administration; settings: ethanol only (300 μl of 20% ethanol oral), 8 h
Experimental: (§1) GFM suspended in saline solution was orally administrated (25 mg/kg) and CTD dried and then resolved in saline solution (50 mg/kg) was used as positive control (50 mg/kg). Before the administration, the experimental animals fasted 4 hours, and after the administration additional 1 hour of fasting was performed.

[4] = Hepatoprotective effect: serum GOT and GPT after oral ethanol; settings: 20% ethanol only, 300 μl oral, 8 h after ethanol
Experimental: as §1

serum ethanol detected by GC [2] [%]	serum GOT [4] [IU/L]	serum GPT [4] [IU/L]	SMILES	ALDH mRNA expression induced by fatty acid [1]	cytotoxicity (% LDH release) (HepG2 cells)	Body weight [3] [g]	Liver mass [3] [g]	Spleen mass [3] [g]
–	–	–	CCCCC/C=C\C/C=C\CCCCCCCC(=O)O [LA, linoleic acid]	effectiveness of GFM might be mainly from LA	–	–	–	–
12.2	259.00 ± 17.44	150.50 ± 10.13	CCO [ethanol]	–	not cytotoxic	21.00 ± 0.57	1.31 ± 0.11	0.09 ± 0.01
